# Test results published in US6737383B1, “Herbicidal oxadiazolidines” (priority 1999, dated 2004).
# Assays:
# [1] = test system: bedstraw; assay: Test B pre/postemergence bedstraw; format: in vivo, Galium aparine
# Procedure, shortened: (§1)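 Response is a visual 0-to-10 score relative to untreated plants, where 0 means no effect and 10 means complete control, taken twelve to sixteen days after application. Treatments went onto soil at planting and onto foliage of 1- to 4-leaf plants, using a surfactant-containing non-phytotoxic solvent.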
# [2] = test system: blackgrass; assay: Test B pre/postemergence blackgrass; format: in vivo, Alopecurus myosuroides
# Procedure, shortened: as §1
# [3] = test system: surinam grass; assay: Test B pre/postemergence surinam grass; format: in vivo, Brachiaria decumbens
# Procedure, shortened: as §1
# [4] = test system: cocklebur; assay: Test B pre/postemergence cocklebur; format: in vivo, Xanthium strumarium
# Procedure, shortened: as §1
# [5] = test system: corn; assay: Test B pre/postemergence corn; format: in vivo, Zea mays
# Procedure, shortened: as §1
# [6] = test system: crabgrass; assay: Test B pre/postemergence crabgrass; format: in vivo, Digitaria sanguinalis
# Procedure, shortened: as §1
# [7] = test system: giant foxtail; assay: Test B pre/postemergence giant foxtail; format: in vivo, Setaria faberii
# Procedure, shortened: as §1
# [8] = test system: morningglory; assay: Test B pre/postemergence morningglory; format: in vivo, Ipomoea hederacea
# Procedure, shortened: as §1
# [9] = test system: pigweed; assay: Test B pre/postemergence pigweed; format: in vivo, Amaranthus retroflexus
# Procedure, shortened: as §1
# [10] = test system: rape; assay: Test B pre/postemergence rape; format: in vivo, Brassica napus
# Procedure, shortened: as §1
# [11] = test system: soybean; assay: Test B pre/postemergence soybean; format: in vivo, Glycine max
# Procedure, shortened: as §1
# [12] = test system: sugar beet; assay: Test B pre/postemergence sugar beet; format: in vivo, Beta vulgaris
# Procedure, shortened: as §1
# [13] = test system: velvetleaf; assay: Test B pre/postemergence velvetleaf; format: in vivo, Abutilon theophrasti
# Procedure, shortened: as §1
# [14] = test system: wheat; assay: Test B pre/postemergence wheat; format: in vivo, Triticum aestivum
# Procedure, shortened: as §1
# [15] = test system: wild oat; assay: Test B pre/postemergence wild oat; format: in vivo, Avena fatua
# Procedure, shortened: as §1
# [16] = test system: purple nutsedge; assay: Test B pre/postemergence purple nutsedge; format: in vivo, Cyperus rotundus
# Procedure, shortened: as §1
# [17] = test system: rice; assay: Test B flood test rice; format: in vivo, Oryza sativa; conditions: Pre-emergence
# Procedure, shortened: (§2)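 Flood test on plants grown to the 2-leaf stage; treated plants kept in greenhouse twelve to sixteen days, then visually rated against controls on a 0 (no effect) to 10 (complete control) scale.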
# [18] = test system: smallflower flatsedge; assay: Test B flood test smallflower flatsedge; format: in vivo, Cyperus difformis; conditions: Pre-emergence
# Procedure, shortened: as §2
# [19] = test system: duck salad; assay: Test B flood test duck salad; format: in vivo, Heteranthera limosa; conditions: Pre-emergence
# Procedure, shortened: as §2
# [20] = test system: bamyardgrass; assay: Test B flood test barnyardgrass; format: in vivo, Echinochloa crus-galli; conditions: Pre-emergence
# Procedure, shortened: as §2
# [21] = Preemergence, Rate 62 g/ha, scale of 0 to 10 where 0 is no effect and 10 is complete control
# [22] = Preemergence, Rate 250 g/ha, scale of 0 to 10 where 0 is no effect and 10 is complete control
# [23] = Preemergence, Rate 500 g/ha, scale of 0 to 10 where 0 is no effect and 10 is complete control
# [24] = Rate 62 g/ha, Postemergence, scale of 0 to 10 where 0 is no effect and 10 is complete control
# [25] = Rate 125 g/ha, Postemergence, scale 0 to 10
# [26] = Rate 125 g/ha, Preemergence, scale of 0 to 10 where 0 is no effect and 10 is complete control
# [27] = Rate 500 g/ha, Postemergence, scale 0 to 10, 0 no effect, 10 complete control
# [28] = Rate 1000 g/ha, scale 0 to 10 (0 no effect, 10 complete control)
# [29] = Rate 125 g/ha, flood test species, scale 0 to 10 where 0 is no effect and 10 is complete control
# [30] = Rate 250 g/ha, flood-test species, scale 0 to 10, 0 is no effect, 10 is complete control
# [31] = Rate 500 g/ha, flood test species, scale 0 to 10 (0 no effect, 10 complete control)
smiles,measurement,setting,value
CCOC(=O)C(C)N(C(=O)n1oc(=O)n(CC)c1=O)c1ccc(F)cc1 (stereo not drawn) [Compound 248],Bedstraw plant response rating,[1]; [21],0
same,Bedstraw plant response rating,[1]; [22],0
same,"Plant response rating, Bedstraw",[1]; [23],0
same,Bedstraw plant response rating,[1]; [24],0
same,Bedstraw plant response rating,[1]; [25],0
same,Bedstraw plant response rating,[1]; [26],0
same,"Plant response rating (0 to 10; 0 is no effect, 10 is complete control), Bedstraw","[1]; Rate 250 g/ha, Postemergence",0
same,Bedstraw plant response rating,[1]; [27],0
same,Blackgrass plant response rating,[2]; [21],0
same,Blackgrass plant response rating,[2]; [22],0
same,"Plant response rating, Blackgrass",[2]; [23],0
same,Blackgrass plant response rating,[2]; [24],0
same,Blackgrass plant response rating,[2]; [25],0
same,Blackgrass plant response rating,[2]; [26],0
same,"Plant response rating (0 to 10; 0 is no effect, 10 is complete control), Blackgrass","[2]; Rate 250 g/ha, Postemergence",0
same,Blackgrass plant response rating,[2]; [27],0
same,B. signalgrass plant response rating,[3]; [21],0
same,B. signalgrass plant response rating,[3]; [22],0
same,"Plant response rating, B. signalgrass",[3]; [23],0
same,B. signalgrass plant response rating,[3]; [24],0
same,B. signalgrass plant response rating,"[3]; Rate 125 g/ha, Postemergence, scale 0 (no effect) to 10 (complete control)",0
same,B. signalgrass plant response rating,[3]; [26],0
same,"Plant response rating (0 to 10; 0 is no effect, 10 is complete control), B. signalgrass","[3]; Rate 250 g/ha, Postemergence",0
same,B. signalgrass plant response rating,[3]; [27],0
same,Cocklebur plant response rating,[4]; [21],0
same,Cocklebur plant response rating,[4]; [22],0
same,"Plant response rating, Cocklebur",[4]; [23],0
same,Cocklebur plant response rating,[4]; [24],0
same,Cocklebur plant response rating,[4]; [25],0
same,Cocklebur plant response rating,[4]; [26],0
same,"Plant response rating (0 to 10; 0 is no effect, 10 is complete control), Cocklebur","[4]; Rate 250 g/ha, Postemergence",0
same,Cocklebur plant response rating,[4]; [27],0
same,Corn plant response rating,[5]; [21],0
same,Corn plant response rating,[5]; [22],0
same,"Plant response rating, Corn",[5]; [23],0
same,Corn plant response rating,[5]; [24],0
same,Corn plant response rating,[5]; [25],0
same,Corn plant response rating,[5]; [26],0
same,"Plant response rating (0 to 10; 0 is no effect, 10 is complete control), Corn","[5]; Rate 250 g/ha, Postemergence",0
same,Corn plant response rating,[5]; [27],0
same,Crabgrass plant response rating,[6]; [21],0
same,Crabgrass plant response rating,[6]; [22],0
same,"Plant response rating, Crabgrass",[6]; [23],0
same,Crabgrass plant response rating,[6]; [26],0
same,"Plant response rating (0 to 10; 0 is no effect, 10 is complete control), Crabgrass","[6]; Rate 250 g/ha, Postemergence",0
same,Crabgrass plant response rating,[6]; [27],0
same,Giant foxtail plant response rating,[7]; [21],0
same,Giant foxtail plant response rating,[7]; [22],0
same,"Plant response rating, Giant foxtail",[7]; [23],0
same,Giant foxtail plant response rating,[7]; [26],0
same,"Plant response rating (0 to 10; 0 is no effect, 10 is complete control), Giant foxtail","[7]; Rate 250 g/ha, Postemergence",0
same,Giant foxtail plant response rating,[7]; [27],0
same,Morningglory plant response rating,[8]; [21],0
same,Morningglory plant response rating,[8]; [22],0
same,"Plant response rating, Morningglory",[8]; [23],0
same,Morningglory plant response rating,[8]; [26],0
same,"Plant response rating (0 to 10; 0 is no effect, 10 is complete control), Morningglory","[8]; Rate 250 g/ha, Postemergence",0
same,Morningglory plant response rating,[8]; [27],0
same,Redroot pigweed plant response rating,[9]; [21],0
same,Redroot pigweed plant response rating,[9]; [22],0
same,"Plant response rating, Redroot pigweed",[9]; [23],0
same,Redroot pigweed plant response rating,[9]; [26],0
same,"Plant response rating (0 to 10; 0 is no effect, 10 is complete control), Redroot pigweed","[9]; Rate 250 g/ha, Postemergence",0
same,Redroot pigweed plant response rating,[9]; [27],0
same,Rape plant response rating,[10]; [21],0
same,Rape plant response rating,[10]; [22],0
same,"Plant response rating, Rape",[10]; [23],0
same,Rape plant response rating,[10]; [26],0
same,"Plant response rating (0 to 10; 0 is no effect, 10 is complete control), Rape","[10]; Rate 250 g/ha, Postemergence",0
same,Rape plant response rating,[10]; [27],0
same,Soybean plant response rating,[11]; [21],0
same,Soybean plant response rating,[11]; [22],0
same,"Plant response rating, Soybean",[11]; [23],0
same,Soybean plant response rating,[11]; [26],0
same,Soybean plant response rating,[11]; [27],1
same,Sugarbeets plant response rating,[12]; [21],0
same,Sugarbeets plant response rating,[12]; [22],0
same,"Plant response rating, Sugarbeets",[12]; [23],0
same,Sugarbeets plant response rating,[12]; [26],0
same,Sugarbeets plant response rating,[12]; [27],0
same,Velvetleaf plant response rating,[13]; [21],0
same,Velvetleaf plant response rating,[13]; [22],0
same,"Plant response rating, Velvetleaf",[13]; [23],0
same,Velvetleaf plant response rating,[13]; [26],0
same,Velvetleaf plant response rating,[13]; [27],0
same,Wheat plant response rating,[14]; [21],0
same,Wheat plant response rating,[14]; [22],0
same,"Plant response rating, Wheat",[14]; [23],0
same,Wheat plant response rating,[14]; [26],0
same,Wheat plant response rating,[14]; [27],0
same,Wild oats plant response rating,[15]; [21],0
same,Wild oats plant response rating,[15]; [22],0
same,"Plant response rating, Wild oats",[15]; [23],0
same,Wild oats plant response rating,[15]; [26],0
same,Wild oats plant response rating,[15]; [27],0
same,Nutsedge plant response rating,[16]; [21],0
same,Nutsedge plant response rating,[16]; [22],0
same,"Plant response rating, Nutsedge",[16]; [23],0
same,Nutsedge plant response rating,[16]; [26],0
same,"Plant response rating (0 to 10; 0 is no effect, 10 is complete control), Nutsedge","[16]; Rate 250 g/ha, Postemergence",0
same,Nutsedge plant response rating,[16]; [27],0
same,Rice plant response rating,[17]; [28],0
same,Rice plant response rating,[17]; [29],0
same,Rice plant response rating,[17]; [30],0
same,Rice plant response rating,[17]; [31],0
same,S. Flatsedge plant response rating,[18]; [28],0
same,S. Flatsedge plant response rating,[18]; [29],0
same,S. Flatsedge plant response rating,[18]; [30],0
same,S. Flatsedge plant response rating,[18]; [31],0
same,Ducksalad plant response rating,[19]; [28],0
same,Ducksalad plant response rating,[19]; [29],0
same,Ducksalad plant response rating,[19]; [30],0
same,Ducksalad plant response rating,[19]; [31],0
same,Barnyardgrass plant response rating,[20]; [28],0
same,Barnyardgrass plant response rating,[20]; [29],0
same,Barnyardgrass plant response rating,[20]; [30],0
same,Barnyardgrass plant response rating,[20]; [31],0
